From patent US9353082B2, “Pharmaceutical compounds” (BIAL—PORTELA & CA, S.A., priority 2008, dated 2016)

Key:
FAAH [1] = biological target: T1, FAAH (Mus musculus, UniProt O08914); assay: In vivo FAAH inhibition after oral dosing, remaining activity in liver homogenate (LVh, peripheral tissue); set-up: species or system NMRI mice; conditions: liver homogenate, low value = strong inhibitor; for In Vivo LVh 3 mg·kg 8 h (remaining FAAH activity, % of control): 8 h after dosing; for In Vivo LVh 3 mg · kg · 8 h (remaining FAAH activity): 3 mg/kg oral
T1 construct: A fragment of liver, left lung lobe and brain without cerebellum were removed; from tissue; host or cells: male NMRI mice; brain (without cerebellum) and liver homogenates
T1 sequence (O08914 1-579): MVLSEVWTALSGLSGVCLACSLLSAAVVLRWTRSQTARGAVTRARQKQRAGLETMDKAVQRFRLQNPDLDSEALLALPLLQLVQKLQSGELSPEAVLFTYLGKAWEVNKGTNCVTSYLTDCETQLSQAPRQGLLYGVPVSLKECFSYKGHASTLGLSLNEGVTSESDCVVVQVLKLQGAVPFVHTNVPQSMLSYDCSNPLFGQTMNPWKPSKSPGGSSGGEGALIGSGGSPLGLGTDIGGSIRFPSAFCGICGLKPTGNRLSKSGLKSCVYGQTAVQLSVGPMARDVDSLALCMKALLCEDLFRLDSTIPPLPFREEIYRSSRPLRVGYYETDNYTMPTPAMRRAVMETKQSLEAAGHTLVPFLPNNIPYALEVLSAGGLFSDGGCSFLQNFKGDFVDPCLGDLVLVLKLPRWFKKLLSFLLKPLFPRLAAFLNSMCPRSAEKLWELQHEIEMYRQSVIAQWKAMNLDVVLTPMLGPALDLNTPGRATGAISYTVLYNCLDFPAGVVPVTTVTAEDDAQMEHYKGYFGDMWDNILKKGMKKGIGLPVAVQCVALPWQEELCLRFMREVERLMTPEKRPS
Protocol: (§1) The in vivo test was performed according to the protocol described below. BRh indicates inhibition in central nervous tissue and LVh indicates inhibition in peripheral tissue, in this case liver.
(§2) The animals used for experiments were male NMRI mice (weighing 27-44 g) obtained from Interfauna Ibérica (Spain). Mice were kept 5 per cage, under controlled environmental conditions (12 hr light/dark cycle and room temperature 22±1° C.). Food and tap water were allowed ad libitum and the experiments were all carried out during daylight hours.
(§3) Animals were administered 30 mg/kg or 3 mg/kg compounds of the invention via oral route (8 ml/kg; compound suspended in 0.5% carboxymethylcellulose (CMC) or solubilized in water) or vehicle (controls) using animal feeding stainless steel curve needles (Perfectum, U.S.A.). Fifteen minutes before sacrifice animal were anesthetized with pentobarbital 60 mg/kg administered intraperitoneally. A fragment of liver, left lung lobe and brain without cerebellum were removed and put in plastic vials containing membrane buffer (3 mM MgCl2, 1 mM EDTA, 50 mM Tris HCl pH 7.4). Tissues were stored at −30° C. until analysis.
(§4) Animals were always fasted overnight before administration of compounds except for time points of >18 h, where food was removed on the morning of day of administration and the compound was administered in the afternoon of the same day. Animals were then given water but nothing else.
(§5) Tissues were thawed on ice and were homogenized in 10 volumes of membrane buffer (3 mM MgCl2, 1 mM EDTA, 50 mM Tris HCl pH 7.4) with either Potter-Elvejhem (brains—8 strokes at 500 rpm) or Heidolph Diax (livers—2 strokes at position 5 for 20 sec with 30 sec pauses).
(§6) Total protein in tissues was determined with the BioRad Protein Assay (BioRad) using a standard curve of BSA (50-250 μg/ml).
(§7) Reaction mix (total volume of 200 μl) contained: […] (2 μM AEA+5 nM ^3H-AEA), 0.1% fatty acid free BSA, 15 μg (brain), 5 μg (liver) or 50 μg (lung) protein, in 1 mM EDTA, 10 mM Tris pH 7.6. After a […] pre-incubation period at 37° C., reaction was started by the addition of the substrate solution (cold AEA+radiolabelled AEA+BSA). Reaction was carried out for 10 min (brain and lung) or […] (liver) before termination by the addition of 400 μl activated charcoal suspension (8 g charcoal in 32 ml 0.5 M HCl in continuous agitation). After a […] incubation period at room temperature with agitation, charcoal was sedimented by centrifugation in microfuge (10 min at 13000 rpm). 200 μl of the supernatant were added to 800 μl Optiphase Supermix scintillation cocktail previously distributed in 24-well plates. Counts per minute (cpm) were determined in a MicrobetaTriLux scintillation counter.
(§8) In each assay blanks (without protein) were prepared.
(§9) The percentage of remaining enzymatic activity was calculated in respect to controls and after blank subtraction.

FAAH [2] = biological target: T1, FAAH; assay: In vivo FAAH inhibition after oral dosing, remaining activity in brain homogenate (BRh, central nervous tissue); set-up: species or system NMRI mice; conditions: brain homogenate, low value = strong inhibitor; for In Vivo BRh 3 mg·kg 8 h (remaining FAAH activity, % of control): 8 h after dosing; for In Vivo BRh 3 mg · kg · 8 h (remaining FAAH activity): 3 mg/kg oral
Protocol: as §1, §2, §3, §4, §5, §6, §7, §8, §9

In Vivo LVh 3 mg·kg 8 h (remaining FAAH activity, % of control) (FAAH [1]) | In Vivo BRh 3 mg·kg 8 h (remaining FAAH activity, % of control) (FAAH [2]) | In Vivo LVh 3 mg · kg · 8 h (remaining FAAH activity) (FAAH [1]) | In Vivo BRh 3 mg · kg · 8 h (remaining FAAH activity) (FAAH [2]) | SMILES
0.7 % of control | 1.4 % of control |  |  | CN(C(=O)n1cnc(-c2ccc(O)cc2)c1)C1CCN(C(=O)OC(C)(C)C)CC1 [Compound no. 469, tert-butyl 4-(4-(4-hydroxyphenyl)-N-methyl-1H-imidazole-1-carboxamido)piperidine-1-carboxylate]
16.7 % of control | 83.2 % of control |  |  | COc1ccc(-c2cn(C(=O)N(C)C3CCCCC3)cn2)cc1C(N)=O [Compound no. 482, 4-(3-carbamoyl-4-methoxyphenyl)-N-cyclohexyl-N-methyl-1H-imidazole-1-carboxamide]
15.1 % of control | 92.1 % of control |  |  | COc1ccc(-c2cn(C(=O)N(C)C3CCCCC3)cn2)cc1NS(C)(=O)=O [Compound no. 485, N-cyclohexyl-4-(4-methoxy-3-(methylsulfonamido)phenyl)-N-methyl-1H-imidazole-1-carboxamide]
2 % of control | 3.8 % of control |  |  | CN(C(=O)n1cnc(-c2cccnc2)c1)C1CCN(CCc2ccccc2)CC1 [Compound no. 488, N-methyl-N-(1-phenethylpiperidin-4-yl)-4-(pyridin-3-yl)-1H-imidazole-1-carboxamide]
0.7 % of control | 0.9 % of control |  |  | CN(C(=O)n1nnc2ccccc21)C1CCN(Cc2ccccc2)CC1.Cl [Compound no. 492, N-(1-benzylpiperidin-4-yl)-N-methyl-1H-benzo[d][1,2,3]triazole-1-carboxamide hydrochloride]
 |  | 22.9 % of control | 48.9 % of control | CN(C(=O)n1cnc(-c2ccc(O)c([N+](=O)[O-])c2)c1)C1CCOCC1 [Compound no. 494, 4-(4-hydroxy-3-nitrophenyl)-N-methyl-N-(tetrahydro-2H-pyran-4-yl)-1H-imidazole-1-carboxamide]
 |  | 2.3 % of control | 2.1 % of control | CN(C(=O)n1cnc(-c2ccc(O)c(F)c2)c1)C1CCOCC1 [Compound no. 495, 4-(3-fluoro-4-hydroxyphenyl)-N-methyl-N-(tetrahydro-2H-pyran-4-yl)-1H-imidazole-1-carboxamide]
 |  | 12.6 % of control | 21.4 % of control | CCCN1CCC(N(C)C(=O)n2cnc(-c3cccc(OC)c3)c2)CC1 [Compound no. 498, 4-(3-methoxyphenyl)-N-methyl-N-(1-propylpiperidin-4-yl)-1H-imidazole-1-carboxamide]
 |  | 44.1 % of control | 120.6 % of control | CN(C(=O)n1cnc(-c2ccc(O)c(C(N)=O)c2)c1)C1CCCCC1 [Compound no. 499, 4-(3-carbamoyl-4-hydroxyphenyl)-N-cyclohexyl-N-methyl-1H-imidazole-1-carboxamide]
 |  | 21.8 % of control | 75.1 % of control | CN(C(=O)n1cnc(-c2ccc(F)c(O)c2)c1)C1CCOCC1 [Compound no. 500, 4-(4-fluoro-3-hydroxyphenyl)-N-methyl-N-(tetrahydro-2H-pyran-4-yl)-1H-imidazole-1-carboxamide]
 |  | 67.4 % of control | 108.5 % of control | COc1ccc(-c2cn(C(=O)N(C)C3CCNCC3)cn2)cc1 [Compound no. 501, 4-(4-methoxyphenyl)-N-methyl-N-(piperidin-4-yl)-1H-imidazole-1-carboxamide]
 |  | 11.5 % of control | 50.2 % of control | CCN1CCC(N(C)C(=O)n2cnc(-c3cccc(OC)c3)c2)CC1 [Compound no. 502, N-(1-ethylpiperidin-4-yl)-4-(3-methoxyphenyl)-N-methyl-1H-imidazole-1-carboxamide]
 |  | 25.1 % of control | 78.8 % of control | CCN1CCC(N(C)C(=O)n2cnc(-c3ccc(OC)c(F)c3)c2)CC1 [Compound no. 503, N-(1-ethylpiperidin-4-yl)-4-(3-fluoro-4-methoxyphenyl)-N-methyl-1H-imidazole-1-carboxamide]
 |  | 51.2 % of control | 112.5 % of control | CN(C(=O)n1cnc(-c2ccccc2)c1)C1CCNCC1.Cl [Compound no. 504, N-methyl-4-phenyl-N-(piperidin-4-yl)-1H-imidazole-1-carboxamide hydrochloride]
 |  | 34 % of control | 101.7 % of control | COc1ccc(-c2cn(C(=O)N(C)C3CCCCC3)cn2)cc1/C(N)=N\O [Compound no. 507, (E)—N-cyclohexyl-4-(3-(N′-hydroxycarbamimidoyl)-4-methoxyphenyl)-N-methyl-1H-imidazole-1-carboxamide]
 |  | 17.2 % of control | 78.3 % of control | CCN1CCC(N(C)C(=O)n2cnc(-c3cccc([N+](=O)[O-])c3)c2)CC1 [Compound no. 509, N-(1-ethylpiperidin-4-yl)-N-methyl-4-(3-nitrophenyl)-1H-imidazole-1-carboxamide]
 |  | 14.4 % of control | 90.3 % of control | CN(C(=O)n1cnc(-c2ccc(O)c(C(N)=O)c2)c1)C1CCOCC1 [Compound no. 513, 4-(3-carbamoyl-4-hydroxyphenyl)-N-methyl-N-(tetrahydro-2H-pyran-4-yl)-1H-imidazole-1-carboxamide]
 |  | 4.4 % of control | 82 % of control | CCCN1CCC(N(C)C(=O)n2cnc(-c3ccc[n+]([O-])c3)c2)CC1 [Compound no. 519, 3-(1-(methyl(1-propylpiperidin-4-yl)carbamoyl)-1H-imidazol-4-yl)pyridine 1-oxide]
 |  | 0.2 % of control | 12 % of control | CN(C(=O)n1cnc(-c2cccnc2)c1)C1CCN(S(C)(=O)=O)CC1 [Compound no. 533, N-methyl-N-(1-(methylsulfonyl)piperidin-4-yl)-4-(pyridin-3-yl)-1H-imidazole-1-carboxamide]
 |  | 18.3 % of control | 74.6 % of control | CCN1CCC(N(C)C(=O)n2cnc(-c3ccc(O)c(F)c3)c2)CC1 [Compound no. 536, N-(1-ethylpiperidin-4-yl)-4-(3-fluoro-4-hydroxyphenyl)-N-methyl-1H-imidazole-1-carboxamide]
